In PMC3740683, “ML212: A small-molecule probe for investigating fluconazole resistance mechanisms in Candida albicans” (Beilstein Journal of Organic Chemistry, 2013):

Columns and labels:
[1] = tested on: C. albicans CaCi-2; assay: Primary screen and dose-response retest: CaCi-2 with 8 µg/mL fluconazole (Alamar Blue growth); type: cell-based, Candida albicans; conditions: Candida albicans, CACI2; 37 °C, 48 hours, with test compound and 8 µg/mL (26 µM) fluconazole; average of at least three independent experiments in duplicate; inactive = negligible activity at concentrations below 26 µM
Description: All of the compounds prepared above were evaluated for their ability to chemosensitize the C. albicans test strains CaCi-2 and CaCi-8 towards fluconazole. […] The DMSO/fluconazole combination served as an internal control.
Protocols for cellular assays
Primary screen and dose-response retest: CaCi-2 with 8 µg/mL fluconazole […]
Clear, flat-bottom, black, 384-well plates (Corning Catalog no. 3712BC; Lot no. […]
DMSO; Fluconazole (Sequoia Research Products Ltd) 2 mg/mL stock solution in PBS; […]
(AG Scientific Catalog no. DAL 1100; Lot no.151016SA); PBS without calcium and magnesium (Cellgro Catalog no. 21-040-CV)
(§1) Synthetic defined growth medium
(§2) RPMI 1640 medium, (powder without sodium bicarbonate; Invitrogen Catalog no. […]
no. 028KO760); Glucose 40% (w/v) in water (Sigma Catalog no. G-5400); MOPS buffer […]
1) Prepare 1× RPMI medium by dissolving 10.4 grams powdered medium in 800 […]
(§3) 2) Add 34.52 g MOPS. While stirring, adjust pH to 7.0 with 10 N NaOH.
(§4) 3) Add 10 mL uridine solution, 50 mL glucose solution, adjust final volume to 1000 […]
Test Strain: C. albicans CaCi-2
1) Inoculate 500 µL of strain from cryopreserved stock into a 250 mL shaker flask containing 30 mL growth medium. Shake at 30 °C overnight.
2) Read OD 600 of 1 mL fungal culture in a cuvette using a standard optical density reader (Eppendorf BioPhotometer Plus), with growth medium as a background […]
3) Dilute to desired volume of fungal inoculums according to the following formula:
(1/OD measured) × (desired final volume of inoculum) × 0.3 = volume of fungal culture (µL) to add to desired volume of growth medium. When added to media in wells, this yields a calculated starting OD of the fungal inoculum of 0.00015.
1) Add fluconazole stock solution to fungal inoculum to achieve a final concentration […]
2) Add Pen/Strep at 0.1 mL per 10 mL media (1% v/v).
3) Use a Thermo Combi nL to dispense 20 µL/well of assay media into all wells.
4) Pin 25 nL test compound from compound plates into assay plates using CyBi- […]
5) Dispense 20 µL/well of culture into the assay media in all wells.
6) Incubate plates in a humidified (90% humidity) Liconic incubator at 37 °C without […]
7) Dilute Alamar Blue Reagent 1:40 in Ca/Mg-free PBS.
8) To all plates, add 5 µL/well of the diluted Alamar to a final dilution factor of 1:200.
9) Incubate the plates for an additional 2 hours.
10) Read the relative fluorescence intensity (RFU) of wells on a standard plate reader as a measure of relative fungal growth. EnVision (Perkin Elmer) plate reader setup: Ex 544 nm, Em 590 nm, bandwidth 12 nm, top read. […]

[2] = tested on: C. albicans CaCi-8; assay: Secondary assay 1: CaCi-8 with 8 µg/mL fluconazole (Alamar Blue growth); type: cell-based, Candida albicans; conditions: Candida albicans, CACI8, 48 h, read-out: CaCi-8 IC50
Description: All of the compounds prepared above were evaluated for their ability to chemosensitize the C. albicans test strains CaCi-2 and CaCi-8 towards fluconazole. […] The DMSO/fluconazole combination served as an internal control. […]
(1/OD measured) × (desired final volume of inoculum) × 0.3 = volume of fungal culture (µL) to add to desired volume of growth medium. When added to media in wells, this yields a calculated starting OD of the fungal inoculum of 0.00015. […]
3) Use a Thermo Combi nL to dispense 20 µL/well of assay media into all wells. […]
EnVision (Perkin Elmer) plate reader setup: Ex 544 nm, Em 590 nm, bandwidth 12 nm, top read.
Secondary assay 1: CaCi-8 with 8 µg/mL fluconazole […]
35808016); geldanamycin (AG Scientific Catalog no. […]
PBS w/o calcium and magnesium (Cellgro Catalog no. 21-040-CV)
as §1, §2
no. 028K0760); glucose 40% (w/v) in water (Sigma Catalog no. G-5400); MOPS buffer […]
1) Prepare 1× RPMI medium by dissolving 10.4 g powdered medium in 800 mL […]
as §3, §4
Test strain: C. albicans CaCi-8
1) Inoculate 500 µL of strain from cryopreserved stock into a 250 mL shaker flask containing 30 mL growth medium. Shake at 30 °C overnight (16 hours).
2) Read OD 600 of 1 mL of fungal culture in a cuvette using a standard optical density reader (Eppendorf BioPhotometer Plus), with growth medium as a […]
3) Dilute to a desired volume of fungal inoculum according to following formula: […]
1) Add fluconazole stock solution to fungal inoculum to achieve 8 µg/mL.
2) Add Pen/Strep to media to 1% concentration.
4) Dispense geldanamycin in positive control wells using Thermo Combi nL for a final concentration of 3 µM.
5) Then, pin 100 nL of test compound from compound plates into assay plates using a CyBi-Well pin tool.
6) Dispense 20 µL/well of culture into the assay media in all wells.
7) Incubate the plates in a humidified (90% humidity) Liconic incubator at 37 °C without agitation for 48 hours.
8) Dilute Alamar Blue 1:40 in Ca/Mg-free PBS.
9) To all plates, add 5 µL/well of the diluted Alamar Blue to plates to a final dilution […]
10) Incubate the plates for 2 hours. […]

[3] = Plasma stability, murine plasma; type: in vitro ADME; conditions: 5 h incubation
[4] = tested on: calcineurin-dependent signaling pathway; assay: Yeast-reporter assay, calcineurin-dependent signaling pathway; type: cell-based; conditions: Saccharomyces cerevisiae

COC(=O)Cn1nc(-c2cccc(OC)c2)c2ccccc21 [Compound 36]
IC50 [1]: 700 ± 300 nM
IC50 [2]: 1500 ± 600 nM
remaining after incubation in plasma [3]: < 10%
IC50 [4]: > 26 µM
